Data: patent US10201546B2, “Quinolinyl modulators of RORγt” (Janssen Pharmaceutica NV, priority 2013, dated 2019)

target: human RORγt LBD fused to the DNA binding domain of the GAL4 protein (Homo sapiens (Human), UniProt P51449); experiment: RORγt (LBD) reporter assay in HEK293T cells; assay type: cell-based; parameters: RORγt (LBD) Reporter Assay, % inhibition: dose or concentration left out as unconfirmed; settings: not given
Sequence (P51449 258-518): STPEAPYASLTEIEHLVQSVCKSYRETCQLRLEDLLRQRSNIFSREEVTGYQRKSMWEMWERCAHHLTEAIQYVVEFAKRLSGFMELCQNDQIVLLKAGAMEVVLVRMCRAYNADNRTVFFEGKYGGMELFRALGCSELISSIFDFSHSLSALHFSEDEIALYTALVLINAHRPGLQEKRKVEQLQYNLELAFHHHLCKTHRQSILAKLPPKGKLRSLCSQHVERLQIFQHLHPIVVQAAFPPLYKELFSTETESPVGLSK

Row | RORγt (LBD) Reporter Assay, % inhibition [%] | Structure (SMILES)
1 | 97 | COc1nc2ccc(C(O)(c3ccc(C)nc3C)c3cnnn3C)cc2c(Cl)c1C1CCCC1 (centres unmarked) [Example 136a, (4-Chloro-3-cyclopentyl-2-methoxyquinolin-6-yl)(2,6-dimethylpyridin-3-yl)(1-methyl-1H-1,2,3-triazol-5-yl)methanol]
2 | 98 | COc1nc2ccc(C(O)(c3ccc(C)nc3C)c3cnnn3C)cc2c(Cl)c1C1CCCC1 (single isomer, unassigned) [Example 136c, (4-Chloro-3-cyclopentyl-2-methoxyquinolin-6-yl)(2,6-dimethylpyridin-3-yl)(1-methyl-1H-1,2,3-triazol-5-yl)methanol]
3 | 98 | COc1nc2ccc(C(O)(c3ccc(C)nc3C)c3cnnn3C)cc2c(Cl)c1CC(C)C (centres unmarked) [Example 133a, (4-Chloro-3-isobutyl-2-methoxyquinolin-6-yl)(2,6-dimethylpyridin-3-yl)(1-methyl-1H-1,2,3-triazol-5-yl)methanol]

same assay, conditions: @ 6 μM

Row | Structure (SMILES) | RORγt (LBD) Reporter Assay, % inhibition @ 6 μM [%]
4 | COc1nc2ccc(C(O)(c3ccc(C)nc3C)c3cnnn3C)cc2c(Cl)c1OC1CCOCC1 (single isomer, unassigned) [Example 69c, [4-Chloro-2-methoxy-3-(tetrahydro-2H-pyran-4-yloxy)quinolin-6-yl](2,6-dimethylpyridin-3-yl)(1-methyl-1H-1,2,3-triazol-5-yl)methanol] | 61
5 | COc1nc2ccc(C(O)(c3ccc(C)nc3C)c3cnnn3C)cc2c(Cl)c1CN1CC(C(F)(F)F)C1 (single isomer, unassigned) [Example 114c, (4-Chloro-2-methoxy-3-((3-(trifluoromethyl)azetidin-1-yl)methyl)quinolin-6-yl)(2,6-dimethylpyridin-3-yl)(1-methyl-1H-1,2,3-triazol-5-yl)methanol] | 72
6 | COCCOc1c(OC)nc2ccc(C(O)(c3ccc(C(F)(F)F)nc3)c3cncn3C)cc2c1Cl (single isomer, unassigned) [Example 79c, [4-Chloro-2-methoxy-3-(2-methoxyethoxy)quinolin-6-yl](1-methyl-1H-imidazol-5-yl)[6-(trifluoromethyl)pyridin-3-yl]methanol] | −2.5
7 | COc1nc2ccc(C(O)(c3ccc(C)nc3C)c3cnnn3C)cc2c(Cl)c1OCc1nccs1 (single isomer, unassigned) [Example 73c, [4-Chloro-2-methoxy-3-(1,3-thiazol-2-ylmethoxy)quinolin-6-yl](2,6-dimethylpyridin-3-yl)(1-methyl-1H-1,2,3-triazol-5-yl)methanol] | −80
8 | COc1nc2ccc(C(O)(c3ccc(C)nc3C)c3cnnn3C)cc2c(Cl)c1C (single isomer, unassigned) [Example 12b, (4-Chloro-2-methoxy-3-methylquinolin-6-yl)(2,6-dimethylpyridin-3-yl)(1-methyl-1H-1,2,3-triazol-5-yl)methanol] | 23
9 | COc1nc2ccc(C(O)(c3ccc(C)nc3C)c3cnnn3C)cc2c(Cl)c1CN1CCC(C(F)(F)F)CC1 (single isomer, unassigned) [Example 103c, (4-Chloro-2-methoxy-3-((4-(trifluoromethyl)piperidin-1-yl)methyl)quinolin-6-yl)(2,6-dimethylpyridin-3-yl)(1-methyl-1H-1,2,3-triazol-5-yl)methanol] | 99

Further lines, results first:

Row | RORγt (LBD) Reporter Assay, % inhibition @ 6 μM [%] | Structure (SMILES)
10 | 98 | COc1nc2ccc(C(O)(c3ccc(C)nc3C)c3cnnn3C)cc2c(Cl)c1CC1CC1 (single isomer, unassigned) [Example 14c, (4-Chloro-3-(cyclopropylmethyl)-2-methoxyquinolin-6-yl)(2,6-dimethylpyridin-3-yl)(1-methyl-1H-1,2,3-triazol-5-yl)methanol]
11 | 54 | COc1nc2ccc(C(O)(c3ccc(C)nc3C)c3cnnn3C)cc2c(Cl)c1CN1CCC(F)(F)CC1 (single isomer, unassigned) [Example 107c, (4-Chloro-3-((4,4-difluoropiperidin-1-yl)methyl)-2-methoxyquinolin-6-yl)(2,6-dimethylpyridin-3-yl)(1-methyl-1H-1,2,3-triazol-5-yl)methanol]
12 | 87 | COc1nc2ccc(C(O)(c3ccc(C)nc3C)c3cnnn3C)cc2c(Cl)c1CN1CCC(n2cccn2)CC1 (single isomer, unassigned) [Example 105c, (3-((4-(1H-Pyrazol-1-yl)piperidin-1-yl)methyl)-4-chloro-2-methoxyquinolin-6-yl)(2,6-dimethylpyridin-3-yl)(1-methyl-1H-1,2,3-triazol-5-yl)methanol]
13 | 86 | COc1nc2ccc(C(O)(c3ccc(C)nc3C)c3cnnn3C)cc2c(Cl)c1OCC1CC1(F)F (single isomer, unassigned) [Example 72c, {4-Chloro-3-[(2,2-difluorocyclopropyl)methoxy]-2-methoxyquinolin-6-yl}(2,6-dimethylpyridin-3-yl)(1-methyl-1H-1,2,3-triazol-5-yl)methanol]
14 | 33 | COc1nc2ccc(C(O)(c3ccc(C)nc3C)c3cnnn3C)cc2c(Cl)c1CN1CCC(n2cccn2)CC1 (single isomer, unassigned) [Example 105b, (3-((4-(1H-Pyrazol-1-yl)piperidin-1-yl)methyl)-4-chloro-2-methoxyquinolin-6-yl)(2,6-dimethylpyridin-3-yl)(1-methyl-1H-1,2,3-triazol-5-yl)methanol]
15 | 72 | COc1nc2ccc(C(O)(c3ccc(C)nc3C)c3cnnn3C)cc2c(Cl)c1CC1CC1 (single isomer, unassigned) [Example 14b, (4-Chloro-3-(cyclopropylmethyl)-2-methoxyquinolin-6-yl)(2,6-dimethylpyridin-3-yl)(1-methyl-1H-1,2,3-triazol-5-yl)methanol]

same assay, conditions: HEK-293T, read-out: RORγt (LBD) Reporter Assay, % inhibition @ 6 μM, @ 6 μM

Row | Structure (SMILES) | inhibition at 6 µM [%]
16 | COc1nc2ccc(C(O)(c3ccnc(C(F)(F)F)c3)c3cncn3C)cc2c(Cl)c1CN1CCC(C(F)(F)F)CC1 (single isomer, unassigned) [Example 100b, (4-Chloro-2-methoxy-3-((4-(trifluoromethyl)piperidin-1-yl)methyl)quinolin-6-yl)(1-methyl-1H-imidazol-5-yl)(2-(trifluoromethyl)pyridin-4-yl)methanol] | 90
17 | COc1nc2ccc(C(O)(c3cnnn3C)c3cnc(C)n3C)cc2c(Cl)c1CN1CCC(C(F)(F)F)CC1 (single isomer, unassigned) [Example 106b, (4-Chloro-2-methoxy-3-((4-(trifluoromethyl)piperidin-1-yl)methyl)quinolin-6-yl)(1,2-dimethyl-1H-imidazol-5-yl)(1-methyl-1H-1,2,3-triazol-5-yl)methanol] | 103
18 | COc1nc2ccc(C(O)(c3ccc(C)nc3C)c3cnnn3C)cc2c(Cl)c1C (centres unmarked) [Example 12a, (4-Chloro-2-methoxy-3-methylquinolin-6-yl)(2,6-dimethylpyridin-3-yl)(1-methyl-1H-1,2,3-triazol-5-yl)methanol] | 93
19 | COc1nc2ccc(C(O)(c3ccc(C)nc3C)c3cnnn3C)cc2c(Cl)c1CN1CC(C(F)(F)F)C1 (single isomer, unassigned) [Example 114b, (4-Chloro-2-methoxy-3-((3-(trifluoromethyl)azetidin-1-yl)methyl)quinolin-6-yl)(2,6-dimethylpyridin-3-yl)(1-methyl-1H-1,2,3-triazol-5-yl)methanol] | 60
20 | COc1nc2ccc(C(O)(c3cncn3C)C3CCN(C(C)=O)CC3)cc2c(Cl)c1CC1CCOCC1 (centres unmarked) [Example 5a, 1-(4-((4-Chloro-2-methoxy-3-((tetrahydro-2H-pyran-4-yl)methyl)quinolin-6-yl)(hydroxy)(1-methyl-1H-imidazol-5-yl)methyl)piperidin-1-yl)ethanone] | 45
21 | COc1nc2ccc(C(O)(c3ccc(C)nc3C)c3cnnn3C)cc2c(Cl)c1OC1CCN(C)CC1 (single isomer, unassigned) [Example 65b, {4-Chloro-2-methoxy-3-[(1-methylpiperidin-4-yl)oxy]quinolin-6-yl}(2,6-dimethylpyridin-3-yl)(1-methyl-1H-1,2,3-triazol-5-yl)methanol] | 39

Other lines, results leading:

Row | inhibition at 6 µM [%] | Structure (SMILES)
22 | 97 | COc1nc2ccc(C(O)(c3ccc(C(F)(F)F)nc3)c3cncn3C)cc2c(Cl)c1CN1CCC(C(F)(F)F)CC1 (single isomer, unassigned) [Example 112b, (4-Chloro-2-methoxy-3-((4-(trifluoromethyl)piperidin-1-yl)methyl)quinolin-6-yl)(1-methyl-1H-imidazol-5-yl)(6-(trifluoromethyl)pyridin-3-yl)methanol]
23 | 90 | COc1nc2ccc(C(O)(c3ccc(C)nc3C)c3cnnn3C)cc2c(Cl)c1CN1CCC(C(F)(F)F)CC1 (single isomer, unassigned) [Example 103b, (4-Chloro-2-methoxy-3-((4-(trifluoromethyl)piperidin-1-yl)methyl)quinolin-6-yl)(2,6-dimethylpyridin-3-yl)(1-methyl-1H-1,2,3-triazol-5-yl)methanol]
24 | 78 | COc1nc2ccc(C(O)(c3ccc(C)nc3C)c3cnnn3C)cc2c(Cl)c1CC1CCC(F)(F)CC1 (single isomer, unassigned) [Example 1b, (4-Chloro-3-((4,4-difluorocyclohexyl)methyl)-2-methoxyquinolin-6-yl)(2,6-dimethylpyridin-3-yl)(1-methyl-1H-1,2,3-triazol-5-yl)methanol]
25 | 33 | COc1nc2ccc(C(O)(c3cncn3C)C3CCN(C(C)=O)CC3)cc2c(Cl)c1CC1CCOCC1 (single isomer, unassigned) [Example 5b, 1-(4-((4-Chloro-2-methoxy-3-((tetrahydro-2H-pyran-4-yl)methyl)quinolin-6-yl)(hydroxy)(1-methyl-1H-imidazol-5-yl)methyl)piperidin-1-yl)ethanone]
26 | 54 | COc1nc2ccc(C(O)(c3ccc(C)nc3C)c3cnnn3C)cc2c(Cl)c1CN1CCC(F)(F)CC1 (centres unmarked) [Example 107a, (4-Chloro-3-((4,4-difluoropiperidin-1-yl)methyl)-2-methoxyquinolin-6-yl)(2,6-dimethylpyridin-3-yl)(1-methyl-1H-1,2,3-triazol-5-yl)methanol]
